The source of these data is patent publication US20260015350A1, “AZAQUINAZOLINE PAN-KRAS INHIBITORS” (Mirati Therapeutics, Inc., priority 2022, published 2026).

The subject of assay [1] is KRas-mediated phosphorylation of ERK in H727 cells. The assay can be described thus: Inhibition of KRas-mediated phosphorylation of ERK (Cisbio HTRF pERK), H727 cells. In kind it is cell-based. As to conditions: Homo sapiens, NCI-H727, H727 cells; HTRF pERK. On the procedure:
(§1) Inhibition of KRas Phosphorylation of ERK (HTRF) by Exemplary Compounds of Formula (I) Cisbio HTRF Advanced PERK Assay Catalog #64[…] […] Add 10 mL of media to stop trypsinizing. Pipette the cells into a conical bottom 50 mL centrifuge tube and centrifuge 5 min×1000 rpm. […] Re-suspend the cell pellet in media, take a cell count, and then adjust the cell density using fresh media. […] Seed 6,000 cells into cell culture plate with 50 μL media. […] Use Tecan to complete the compound addition. Compounds start from 10 uM top, 3-fold dilution, and 10 doses. The final DMSO concentration is 0.8%. Dispensed 0.2 uM Trametinib as Min control. […] Incubate cell plate for 3 hrs in the incubator. […] Dilute 1 volume of 4× lysis buffer with 3 volumes of deionized water. […] Keep lysis buffer on the ice. […] At the end of the compound treatment, flick-off the media. […] Add 35 μL of lysis buffer per well using a Multidrop Combi. Then place on a plate agitator shaking at 300 rpm at 4° C. for 40 mins. […] Make up the HTRF antibody buffer. For each assay plate, mix 50 μL of d2-conjugate antibody with 950 μL of detection buffer. Similarly, mix 50 μL of Cryptate antibody with 950 μL of detection buffer. Then mix the two diluted antibodies together. […] Dispense 3.4 μL the antibody buffer to wells of an empty assay plate. Seal the plate and centrifuge plate 30 sec×1000 rpm. […] At the end of the 4° C. lysis, centrifuge the lysate plates 3 mins×1500 rpm. […] Use the Bravo to transfer 13.6 μL of lysate from cell culture plate to assay plate. Then incubate assay plate for 2 hrs at room temperature. 8. At the end of incubation, read plate on the Envision after centrifuging plate 30 sec×1000 rpm.

Another assay deals with T1, KRas^G12D (Homo sapiens, UniProt P01116, G12D).
T1 construct: Biotinylated KRas (corresponding to amino acids 1-169, produced at Accelegan Inc.); biotin (biotinylated); purchased Accelegan Inc
T1 sequence (P01116 1-169 isoform P01116-2 G12D): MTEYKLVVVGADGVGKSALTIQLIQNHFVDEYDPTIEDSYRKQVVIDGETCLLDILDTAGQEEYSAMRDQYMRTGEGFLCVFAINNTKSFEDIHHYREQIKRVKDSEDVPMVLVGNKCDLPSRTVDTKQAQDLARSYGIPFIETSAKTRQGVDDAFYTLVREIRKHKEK
The assay can be described thus: KRas binding assay (TR-FRET tracer displacement), KRas G12D.

The target in the next assay is T2, KRas^G12R (Homo sapiens, UniProt P01116, G12R).
T2 construct: Biotinylated KRas (corresponding to amino acids 1-169, produced at Accelegan Inc.); biotin (biotinylated); purchased Accelegan Inc
T2 sequence (P01116 1-169 isoform P01116-2 G12R): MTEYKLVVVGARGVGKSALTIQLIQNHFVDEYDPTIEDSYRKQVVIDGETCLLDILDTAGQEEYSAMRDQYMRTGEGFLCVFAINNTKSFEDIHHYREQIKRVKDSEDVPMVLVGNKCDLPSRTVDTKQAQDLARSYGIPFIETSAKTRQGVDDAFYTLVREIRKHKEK
The assay can be described thus: KRas binding assay (TR-FRET tracer displacement), KRas G12R.

The subject of assay [2] is KRas-mediated phosphorylation of ERK in AsPC-1 cells. The assay can be described thus: Inhibition of KRas-mediated phosphorylation of ERK (Cisbio HTRF pERK), AsPC-1 cells. In kind it is cell-based. As to conditions: Homo sapiens, ASPC1, AsPC-1 cells; HTRF pERK. The method, then: as §1
A further assay addresses T3, KRas^G12V (Homo sapiens, UniProt P01116, G12V).
T3 construct: Biotinylated KRas (corresponding to amino acids 1-169, produced at Accelegan Inc.); biotin (biotinylated); purchased Accelegan Inc
The assay can be described thus: KRas binding assay (TR-FRET tracer displacement), KRas G12V.

T3 sequence (P01116 1-169 isoform P01116-2 G12V): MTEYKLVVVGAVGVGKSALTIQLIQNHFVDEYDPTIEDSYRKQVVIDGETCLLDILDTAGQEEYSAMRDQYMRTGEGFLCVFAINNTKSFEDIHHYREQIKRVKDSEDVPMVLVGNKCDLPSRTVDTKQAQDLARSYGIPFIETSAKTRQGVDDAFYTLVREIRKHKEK

On to `CCc1c(F)ccc2cc(O)cc(-c3ncc4c(N5CCCC6(CC=CCO6)C5)nc(OC[C@@]56CCCN5C[C@H](F)C6)nc4c3F)c12` (stereo partly drawn) [Example 589, 5-ethyl-6-fluoro-4-(8-fluoro-2-(((2R,7aS)-2-fluorotetrahydro-1H-pyrrolizin-7a(5H)-yl)methoxy)-4-(1-oxa-8-azaspiro[5.5]undec-3-en-8-yl)pyrido[4,3-d]pyrimidin-7-yl)naphthalen-2-ol], for which the IC50 in assay [1] worked out at 731 nM; at KRas^G12D, 38 nM; at KRas^G12R, 12 nM; in assay [2] it was 1540 nM; at KRas^G12V, 16 nM.

Take `CCc1c(F)ccc2cc(O)cc(-c3ncc4c(N5CCC(CC6CCCO6)C5)nc(OC[C@@]56CCCN5C[C@H](F)C6)nc4c3F)c12` (stereo partly drawn) [Example 597, 5-ethyl-6-fluoro-4-(8-fluoro-2-(((2R,7aS)-2-fluorotetrahydro-1H-pyrrolizin-7a(5H)-yl)methoxy)-4-(3-((tetrahydrofuran-2-yl)methyl)pyrrolidin-1-yl)pyrido[4,3-d]pyrimidin-7-yl)naphthalen-2-ol]: the concentration for half-maximal inhibition (IC50) turned out to be 2360 nM in assay [1]; 867 nM at KRas^G12D; 194 nM on KRas^G12R; 4800 nM in assay [2]; 82 nM at KRas^G12V.

Consider `CCc1c(F)ccc2cc(O)cc(-c3ncc4c(N5CCCC6(C5)NC(=O)NC6=O)nc(N5CC(N)C5)nc4c3F)c12` (stereo not drawn) [Example 528, 7-(2-(3-aminoazetidin-1-yl)-7-(8-ethyl-7-fluoro-3-hydroxynaphthalen-1-yl)-8-fluoropyrido[4,3-d]pyrimidin-4-yl)-1,3,7-triazaspiro[4.5]decane-2,4-dione], for which the half-maximal inhibitory concentration (IC50) in assay [1] is > 10000 nM; at KRas^G12D it was 8 nM; on KRas^G12R, 3 nM; in assay [2] it was > 10000 nM; on KRas^G12V it was 3 nM.

As for `CCc1c(F)ccc2cc(O)cc(-c3ncc4c(N5CC6C(=O)NC(=O)C6C5)nc(OC[C@]56CCCN5[C@H](COC(=O)N(C)C)CC6)nc4c3F)c12` (stereo partly drawn) [Example 708, ((3S,7aR)-7a-(((4-(4,6-dioxohexahydropyrrolo[3,4-c]pyrrol-2(1H)-yl)-7-(8-ethyl-7-fluoro-3-hydroxynaphthalen-1-yl)-8-fluoropyrido[4,3-d]pyrimidin-2-yl)oxy)methyl)hexahydro-1H-pyrrolizin-3-yl)methyl dimethylcarbamate], the IC50 in assay [1] was > 10000 nM; on KRas^G12D, 19900 nM; on KRas^G12R, 39800 nM; in assay [2], > 10000 nM; at KRas^G12V, 42900 nM.

On to `CCc1c(F)ccc2cc(O)cc(-c3ncc4c(N5CCO[C@@H](CS(N)(=O)=O)C5)nc(OC[C@@]56CCCN5C[C@H](F)C6)nc4c3F)c12` [Example 636, 1-((R)-4-(7-(8-ethyl-7-fluoro-3-hydroxynaphthalen-1-yl)-8-fluoro-2-(((2R,7aS)-2-fluorotetrahydro-1H-pyrrolizin-7a(5H)-yl)methoxy)pyrido[4,3-d]pyrimidin-4-yl)morpholin-2-yl)methanesulfonamide], for which the concentration for half-maximal inhibition (IC50) in assay [1] is 1810 nM; at KRas^G12D it was 10 nM; at KRas^G12R, < 2 nM; in assay [2], 4190 nM; at KRas^G12V, 3 nM.

Take `CCc1c(F)ccc2cc(O)cc(-c3ncc4c(N5Cc6c(C(=O)N(C)C)nn(C)c6C5)nc(OC[C@@]56CCCN5C[C@H](F)C6)nc4c3F)c12` [Example 867, 5-(7-(8-ethyl-7-fluoro-3-hydroxynaphthalen-1-yl)-8-fluoro-2-(((2R,7aS)-2-fluorotetrahydro-1H-pyrrolizin-7a(5H)-yl)methoxy)pyrido[4,3-d]pyrimidin-4-yl)-N,N, 1-trimethyl-1,4,5,6-tetrahydropyrrolo[3,4-c]pyrazole-3-carboxamide]: the half-inhibitory concentration (IC50) is 3410 nM in assay [1]; 527 nM at KRas^G12D; 253 nM at KRas^G12R; > 10000 nM in assay [2]; 97 nM at KRas^G12V.

As to `CCc1cccc2cccc(-c3ncc4c(C5CCCCC5)nc(OCC56CCCN5CCC6)nc4c3F)c12` [Example 722, 4-cyclohexyl-7-(8-ethylnaphthalen-1-yl)-8-fluoro-2-((hexahydro-1H-pyrrolizin-7a-yl)methoxy)pyrido[4,3-d]pyrimidine], the 50% inhibitory concentration (IC50) is > 100000 nM on KRas^G12D, 30000 nM on KRas^G12R and 42900 nM on KRas^G12V.

For `O[C@@H]1C[C@H]2C[C@@H]1CN(c1nc(OC[C@@]34CCCN3C[C@H](F)C4)nc3c(F)c(-c4cccc5cc(C(F)F)ccc45)ncc13)C2` [Example 841, (1R,5R,6R)-3-(7-(6-(difluoromethyl)naphthalen-1-yl)-8-fluoro-2-(((2R,7aS)-2-fluorotetrahydro-1H-pyrrolizin-7a(5H)-yl)methoxy)pyrido[4,3-d]pyrimidin-4-yl)-3-azabicyclo[3.2.1]octan-6-ol], the 50% inhibitory concentration (IC50) at KRas^G12D worked out at 66900 nM; on KRas^G12R, 62900 nM; at KRas^G12V, 34000 nM.

As to `CCc1cccc2cccc(-c3ncc4c(C5CCCOCC5)nc(OCC56CCCN5CCC6)nc4c3F)c12` (racemic) [Example 723, rac-(R)-7-(8-ethylnaphthalen-1-yl)-8-fluoro-4-(oxepan-4-yl)-2-((tetrahydro-1H-pyrrolizin-7a(5H)-yl)methoxy)pyrido[4,3-d]pyrimidine], the IC50 at KRas^G12D is > 100000 nM; on KRas^G12R, 27500 nM; at KRas^G12V, 42800 nM.

Consider `O[C@@H]1CCCN(c2nc(OCC34CCCN3CCC4)nc3c(F)c(-c4cccc5cccc(Cl)c45)ncc23)C1` [Example 902, (R)-1-(7-(8-chloronaphthalen-1-yl)-8-fluoro-2-((tetrahydro-1H-pyrrolizin-7a(5H)-yl)methoxy)pyrido[4,3-d]pyrimidin-4-yl) piperidin-3-ol], for which the 50% inhibitory concentration (IC50) on KRas^G12D amounted to 834 nM; on KRas^G12R, 876 nM; on KRas^G12V, 902 nM.

Consider `CCc1c(F)ccc2cc(OC)cc(-c3ncc4c(N5C[C@@H]6C[C@H](C5)[C@H](O)C6)nc(OC[C@@]56CCCN5C[C@H](F)C6)nc4c3F)c12` [Example 777, (1R,5R,6R)-3-(7-(8-ethyl-7-fluoro-3-methoxynaphthalen-1-yl)-8-fluoro-2-(((2R,7aS)-2-fluorohexahydro-1H-pyrrolizin-7a-yl)methoxy)pyrido[4,3-d]pyrimidin-4-yl)-3-azabicyclo[3.2.1]octan-6-ol], for which the half-maximal inhibitory concentration (IC50) on KRas^G12D is 4190 nM; at KRas^G12R it was 1320 nM; at KRas^G12V, 1050 nM.

As for `CCc1c(F)ccc2cc(O)cc(-c3ncc4c(NCc5cn(C(=O)N(C)C)nc5NC(=O)C5CCC5O)nc(OC[C@@]56CCCN5C[C@H](F)C6)nc4c3F)c12` (stereo partly drawn) [Example 819, 4-(((7-(8-ethyl-7-fluoro-3-hydroxynaphthalen-1-yl)-8-fluoro-2-(((2R,7aS)-2-fluorotetrahydro-1H-pyrrolizin-7a(5H)-yl)methoxy)pyrido[4,3-d]pyrimidin-4-yl)amino)methyl)-3-(2-hydroxycyclobutane-1-carboxamido)-N,N-dimethyl-1H-pyrazole-1-carboxamide], the IC50 on KRas^G12D was found to be 1130 nM; at KRas^G12R, 86 nM; on KRas^G12V, 24 nM.

In the case of `CCc1c(F)ccc2cc(O)cc(-c3ncc4c(CCc5ccnn5C)nc(OC[C@@]56CCCN5C[C@H](F)C6)nc4c3F)c12` [Example 545, 5-ethyl-6-fluoro-4-(8-fluoro-2-(((2R,7aS)-2-fluorotetrahydro-1H-pyrrolizin-7a(5H)-yl)methoxy)-4-(2-(1-methyl-1H-pyrazol-5-yl)ethyl)pyrido[4,3-d]pyrimidin-7-yl)naphthalen-2-ol], the IC50 at KRas^G12D was 4970 nM; on KRas^G12R it was 656 nM; on KRas^G12V it was 431 nM.

On to `CCCCCCCCCCN(C)C(=O)OC[C@@H]1CC[C@@]2(COc3nc(N4CCC[C@@](C)(O)C4)c4cnc(-c5cc(O)cc6ccc(F)c(CC)c56)c(F)c4n3)CCCN12` [Example 894, ((3S,7aR)-7a-(((7-(8-ethyl-7-fluoro-3-hydroxynaphthalen-1-yl)-8-fluoro-4-((R)-3-hydroxy-3-methylpiperidin-1-yl)pyrido[4,3-d]pyrimidin-2-yl)oxy)methyl)hexahydro-1H-pyrrolizin-3-yl)methyl decyl(methyl)carbamate], for which the IC50 on KRas^G12D was 121 nM; at KRas^G12R it was 177 nM; at KRas^G12V, 119 nM.
